Source: US11596633B2, “SHP2 inhibitor compositions and methods for treating cancer” (Revolution Medicines, Inc., priority 2017, dated 2023)

How the values were obtained:
NCI-H2009 = assay: 3D cell viability (CTG); assay type: cell-based; settings: Homo sapiens; NCI-H2009, KRAS G12A, 3D culture
NCI-H2122 = assay: 3D cell viability (CTG); assay type: cell-based; settings: Homo sapiens; NCI-H2122, KRAS G12C, 3D culture
LS180 = assay: 3D cell viability (CTG); assay type: cell-based; settings: Homo sapiens; LS180, KRAS G12D, 3D culture
SHP-77 = assay: 3D cell viability (CTG); assay type: cell-based; settings: Homo sapiens, SHP77; SHP-77, KRAS G12V, 3D culture
SW480 = assay: 3D cell viability (CTG); assay type: cell-based; settings: Homo sapiens; SW480, KRAS G12V, 3D culture
Experimental: To evaluate cell viability in 3D culture, cells in logarithmic growth phase were plated in growth medium containing 0.65% methylcellulose at an optimum seeding density. Cells were incubated overnight prior to treatment with different concentrations of the test article. Cells were cultured for an additional seven days and cell viability assessed using the CellTiterGlo™ (CTG) reagent, according to the manufacturer's instructions. In some instances, cells were grown in 3D culture as spheroids. Briefly, 2500 cells/well were seeded in round bottom ultra-low attachment 96-well plates (Corning) in growth media supplemented with 10% fetal bovine serum and 1% penicillin/streptomycin, and allowed to form spheroids for 72 hours at 37° C. in 5% CO2. […] Following drug exposure for five days, cell viability in spheroids was determined using the CellTiter-Glo assay kit. […] After one day in culture, cells were treated with the test article, which was then replenished every three days. Cells were maintained in culture for 10 days until the control wells reached confluency at which time the cells were fixed and stained with crystal violet.

NCI-H460 = assay: 3D cell viability (CTG); assay type: cell-based; settings: Homo sapiens; NCI-H460, KRAS Q61H, 3D culture
SW948 = assay: 3D cell viability (CTG); assay type: cell-based; settings: Homo sapiens; SW948, KRAS Q61L, 3D culture
pERK in NCI-H1838 cells = assay: p-ERK AlphaLisa SureFire; assay type: cell-based; settings: for p-ERK: NCI-H1838 (NF1 LOF)
Experimental: (§1) Cells were plated at ˜20×10^3 cells per well and following overnight incubation were washed with serum-free media. Cells were then incubated for one hour with increasing concentrations of the test article in serum-free media containing 0.2% BSA prior to termination of the assay and measurement of pERK levels in cellular lysates by AlphaLisa SureFire Ultra kit conducted according to the manufacturer's instructions.

p-ERK1/2 in H358 cells = assay: p-ERK AlphaLisa SureFire; assay type: cell-based, human; settings: H358 cells (KRAS G12C)
Experimental: as §1

RAS-GTP in H358 cells = assay: RAS-GTP pulldown (Raf-RBD); assay type: cell-based, human
Experimental: To determine the effects of small molecules on levels of activated RAS-GTPase, cell lines of interest were cultured under standard 2D culture conditions. Cells were seeded and following overnight incubation incubated at 37° C. with vehicle (DMSO) or test article(s). After an appropriate incubation period, cells were washed and cell lysis buffer added to prepare a cell lysate. The levels of Ras-GTP in the lysates were determined using affinity purification of a Raf-RBD (Ras binding domain of Raf)/GTP-Ras complex. In one approach, the Pierce Active Ras Pulldown and Detection Kit was used. Briefly, clarified lysates (500 μg total protein, quantified by BCA) were mixed with glutathione resin, which had been preincubated with GST-Raf-RBD. The mixture was vortexed and incubated at 4° C. for 1 hour with gentle rocking. The resin was washed three times with lysis buffer and bound Ras-GTP eluted by addition of 2× reducing sample buffer. […]
To determine the effects of small molecules on levels of activated RAS-GTPase, cell lines of interest were cultured under standard 2D culture conditions. […] The levels of Ras-GTP in the lysates were determined using affinity purification of a Raf-RBD (Ras binding domain of Raf)/GTP-Ras complex. […] Briefly, clarified lysates (500 μg total protein, quantified by BCA) were mixed with glutathione resin which had been preincubated with GST-Raf-RBD. […]

[1] = test system: RAS-GTP in NCI-H1838 cells; assay: RAS-GTP pulldown (Raf-RBD); assay type: cell-based; settings: NCI-H1838 (NF1 LOF)
Experimental: (§2) To determine the effects of small molecules on levels of activated RAS-GTPase, cell lines of interest were cultured under standard 2D culture conditions. Cells were seeded and following overnight incubation incubated at 37° C. with vehicle (DMSO) or test article(s). After an appropriate incubation period, cells were washed and cell lysis buffer added to prepare a cell lysate. The levels of Ras-GTP in the lysates were determined using affinity purification of a Raf-RBD (Ras binding domain of Raf)/GTP-Ras complex. In one approach, the Pierce Active Ras Pulldown and Detection Kit was used. Briefly, clarified lysates (500 μg total protein, quantified by BCA) were mixed with glutathione resin, which had been preincubated with GST-Raf-RBD. The mixture was vortexed and incubated at 4° C. for 1 hour with gentle rocking. The resin was washed three times with lysis buffer and bound Ras-GTP eluted by addition of 2× reducing sample buffer. Eluted proteins were separated by SDS-PAGE using a 4-15% Tris-glycine gel (BioRad). Proteins were transferred to a nitrocellulose membrane for western blot using an anti-Ras antibody (Thermofisher, 1:200) and a Licor IRDye-800 anti-mouse secondary antibody (1:20,000). The Licor Odyssey CLx was used for visualization.
as §2, with “resin” for “resin,”

[2] = test system: phosphorylated RTKs in MDA-MB-231 cells; assay: Phospho-RTK array; assay type: cell-based; settings: MDA-MB-231 (KRAS G13D), 24 hours; selumetinib 5 μM, Compound A 1 and 5 μM
Experimental: To determine the effects of test article(s) on levels of phosphorylated RTKs, MDA-MB231 cells were seeded in 6-well plates and incubated overnight in full growth medium. Cells were treated for 24 hours with selumetinib (5 μM) or Compound A (1 and 5 μM) or left untreated (DMSO control). Lysates were generated using the lysis buffer provided with the kit (Phospho-RTK Array; R&D systems) with inclusion of a protease inhibitor cocktail. To control for protein concentration, total protein levels were quantified using BCA reagent kit. The levels of phospho-RTK were determined according to the manufacturer's instructions.

p-ERK1/2 in Calu-1 cells = assay: p-ERK AlphaLisa SureFire; assay type: cell-based, human; settings: Calu-1 cells (KRAS G12C)
Experimental: as §1

NF1 LOF cell lines = settings: 3D culture, CTG Day 7
Experimental: (§3) To evaluate cell viability in 3D culture, cells in logarithmic growth phase were plated in growth medium containing 0.65% methylcellulose at an optimum seeding density. Cells were incubated overnight prior to treatment with different concentrations of the test article. Cells were cultured for an additional seven days and cell viability assessed using the CellTiterGlo™ (CTG) reagent, according to the manufacturer's instructions. In some instances, cells were grown in 3D culture as spheroids. Briefly, 2500 cells/well were seeded in round bottom ultra-low attachment 96-well plates (Corning) in growth media supplemented with 10% fetal bovine serum and 1% penicillin/streptomycin, and allowed to form spheroids for 72 hours at 37° C. in 5% CO2. […] Following drug exposure for five days, cell viability in spheroids was determined using the CellTiter-Glo assay kit. H1838 cells were seeded at 5×10^3 cells per well of a 12-well plate. After one day in culture, cells were treated with the test article, which was then replenished every three days.

YUHEF melanoma cell line = settings: YUHEF (NF1 Q853*/FS-indel), 3D culture
Experimental: as §3

Structure (SMILES)	IC50 (NCI-H2009) [µM]	IC50 (NCI-H2122) [µM]	IC50 (LS180) [µM]	IC50 (SHP-77) [µM]	IC50 (SW480) [µM]	IC50 (NCI-H460) [µM]	IC50 (SW948) [µM]	p-ERK (pERK in NCI-H1838 cells)	inhibition of p-ERK1/2 levels (p-ERK1/2 in H358 cells)	Ras activation (levels of Ras-GTP) (RAS-GTP in H358 cells; H358 cells)	RAS-GTP levels [1]	feedback-driven RAS-GTP accumulation ([1]; MEK inhibition by trametinib)	feedback-driven p-RTK hyperactivation [2]	IC50 (pERK in NCI-H1838 cells; Homo sapiens, NCI-H1838, 1 h, read-out: geometric mean IC50 for reduction in pERK) [µM]	inhibition of p-ERK1/2 levels (p-ERK1/2 in Calu-1 cells)	RAS-GTP accumulation resulting from MEK inhibition by trametinib (RAS-GTP in H358 cells; H358 (KRAS G12C), 6 hour and 24 hour)	NF1 LOF cell lines whose proliferation exhibited sensitivity (NF1 LOF cell lines)	effect on proliferation (YUHEF melanoma cell line)
Nc1nc(N2CCC3(CCC[C@H]3N)CC2)cnc1Sc1ccnc(Cl)c1Cl [Compound A]	0.3	5.9	> 10	> 10	> 10	> 10	> 10	potently inhibited	concentration-dependent inhibition	inhibited	inhibited	suppressed this effect	did not	–	–	–	–	–
Cc1nc(N2CCC3(CC2)CO[C@@H](C)[C@H]3N)c(CO)nc1-c1cccc(Cl)c1Cl [Compound B]	–	–	–	–	–	–	–	suppression	concentration-dependent inhibition	–	downregulation	–	–	0.029	concentration-dependent inhibition	suppressed	3/4	No effect
